Reference: PMC9077138, “An investigation on 3-acetyl-7-methoxy-coumarin Schiff bases and their Ru(II) metallates with potent antiproliferative activity and enhanced LDH and NO release” (RSC Advances, 2018)

What was measured:
[1] = tested on: Aspergillus fumigatus; test: In vitro antifungal assay (zone of inhibition, MIC); format: cell-based
Method: (§1) The free ligands and their cyclometallated ruthenium(II) carbonyl complexes were screened for their in vitro antimicrobial activity against certain pathogenic bacterial and fungal species at three different concentrations using disc diffusion method.
(§2) Antimicrobial activities of [RuHClCO(PPh3)3], ligands H2L^1–4 and new organometallic Ru(II) complexes (1–4) were evaluated by agar well diffusion method[76] as reported, by taking Staphylococcus aureus, Streptococcus pneumonie, Pseudomonas aeruginosa, Salmonella paratyphi and fungus such as Candida albicans, Trichophyton rubrum, Aspergillus niger, Aspergillus fumigatus and Candida tropicalis. The above said all test organisms were obtained from the MTCC, Chandigarh, India and Microbiological laboratory, Coimbatore, Tamil Nadu, India. The antimicrobial activity of the test compounds was checked with various concentrations (25 μg ml^−1, 50 μg ml^−1 and 100 μg ml^−1) against all the test pathogens. Gentamicin and ketoconazole were used as positive controls to study the antibacterial and antifungal activities respectively. Each experiment was performed in triplicate and the results are represented as average zone of inhibition and minimum inhibitory concentration of all the test pathogens.

[2] = tested on: Aspergillus niger; test: as above; format: cell-based
Method: as §1, §2

[3] = tested on: Candida tropicalis; test: as above; format: cell-based
Method: as §1, §2

[4] = tested on: Trichophyton rubrum; test: as above; format: cell-based
Method: as §1, §2

[5] = tested on: human normal keratinocyte cells (HaCaT); test: MTT cytotoxicity assay; format: cell-based; conditions: MTT, 48 h, normal cells; read-out: IC50 values HaCaT
Method: In order to investigate the selectivity of the compounds for cancer cells rather than normal cell lines, the compounds were also screened for their anticancer activity on the human normal keratinocyte cells (HaCaT).
(§3) Cytotoxic activity of the compounds was tested with human lung cancer cell lines A549, human breast cancer cell lines MCF-7 and human normal keratinocyte cells (HaCaT) by using MTT assay, which was done according to the earlier literature methods[77] and IC50 values obtained from nonlinear regression using GraphPad Prism 5.[78] The LDH release[79] and NO release[80] assays of the compounds was evaluated by the earlier reported methods.

[6] = tested on: S. paratyphi; test: In vitro antibacterial assay (zone of inhibition, MIC); format: cell-based, Salmonella paratyphi
Text: The free ligands and their cyclometallated ruthenium(II) carbonyl complexes were screened for their in vitro antimicrobial activity against certain pathogenic bacterial and fungal species at three different concentrations using disc diffusion method. […] Tested complexes had better antimicrobial activity than the ligands against all pathogens. This may be explained by Tweedy's chelation theory.[61] Coordination of ligands reduce the polarity of the metal ion essentially by partial sharing of its positive charge with the donor groups within the chelate ring system formed during the coordination and leading to the increase in lipophilic nature of the central metal atom, which favours the effective permeation through the lipid layer of microorganism.[61,62] […] When tested against T. rubrum, the activity of the complexes in the order of 3 > 2 > 1 > 4. In antibacterial studies, the complex 3 was effective against S. aureus followed by complex 2, 1 and 4 and in the case of S. pneumonie the activity of the complexes follows the order of 3 > 1 > 4 > 2. […] When tested against S. paratyphi complex 1 stood out as good followed by the complexes 4, 3 and 2 respectively.
as §2

[7] = tested on: S. pneumonie; test: as above; format: cell-based, Streptococcus pneumonie; conditions: S. pneumonie
Method: as §1, §2

[8] = Total antioxidant capacity, phosphomolybdate method
Method: (§4) It has been reported that free radical species such as reactive oxygen species (ROS), are involved in the pathogenesis of various diseases through effects on DNA directly and by acting as a tumour promoter.[59,60] The DPPH free radical scavenging activity of the ligands and complexes were studied and quantitatively antioxidant properties were determined by using phosphomolybdate method. We knew that the inhibitory effects of the tested compounds on DPPH radical are concentration dependent and the suppression ratio increases with increasing sample concentrations (Fig. S36 ^†). […] In the phosphomolybdenum assay, the antioxidant activity is expressed as the number of equivalents of ascorbic acid (Table 6). The total antioxidant activity of the compounds is in the following order complex 3 > complex 2 > complex 1 > complex 4 > H2L^3 > H2L^2 > H2L^1 > H2L^4 > ascorbic acid > [RuHClCO(PPh3)3]. The results concluded that the metal complexes are better antioxidants than their parent ligands which may be due to the chelation of the ligands to metal ion.[35] The radical scavenging ability of the new complexes is greater than that of few other reported ruthenium complexes, containing Schiff base ligands.[9]
(§5) The DPPH radical scavenging activity of the compounds have been carried out according to the reported method.[74] In this study, various concentrations of the experimental standard ascorbic acid, [RuHCl(CO)(PPh3)3], ligands (20–100 μM) and complexes (2–10 μM) in methanol were taken. Total antioxidant activity of the compounds was determined by the phosphomolybdate method.[75]

[9] = tested on: C. albicans; test: In vitro antifungal assay (zone of inhibition, MIC); format: cell-based, Candida albicans; conditions: C. albicans
Method: as §1, §2

[10] = tested on: P. aeruginosa; test: In vitro antibacterial assay (zone of inhibition, MIC); format: cell-based, Pseudomonas aeruginosa; conditions: P. aeruginosa
Method: as §1, §2

[11] = tested on: S. aureus; test: as above; format: cell-based, Staphylococcus aureus; conditions: S. aureus
Method: as §1, §2

[12] = tested on: human breast cancer cell line MCF-7; test: MTT cytotoxicity assay; format: cell-based; conditions: MTT, 48 h; read-out: IC50 values MCF-7
Text: (§6) The DNA/protein binding studies, antioxidant and antimicrobial studies had shown that the ligands and ruthenium(II) complexes studied here have therapeutic potentials and were subjected to study their anticancer activity. A number of coumarin derivatives have shown considerable anticancer activity against a number of cell lines. All the 3-acetyl-7-methoxy-coumarin-4(N)-substituted thiosemicarbazone ligands, metal precursor [RuHClCO(PPh3)3] and their new cyclometallated Ru(II) complexes were assessed for their cytotoxicity with two human derived cell lines namely human lung carcinoma (A549) and human breast cancer cells (MCF-7) by using MTT assay. For comparison purpose, cisplatin was used as a positive control under identical conditions.
as §3

[13] = tested on: human lung carcinoma cancer cell line A549; test: MTT cytotoxicity assay; format: cell-based; conditions: MTT, 48 h; read-out: IC50 values A549
Text: as §6, §3

[14] = DPPH radical scavenging assay; conditions: in methanol
Method: as §4, §5

Structure (SMILES): [C-]#[O+].[Cl][RuH].c1ccc(P(c2ccccc2)c2ccccc2)cc1.c1ccc(P(c2ccccc2)c2ccccc2)cc1.c1ccc(P(c2ccccc2)c2ccccc2)cc1 [[RuHClCO(PPh3)3], reference compound]
- Minimum inhibitory concentration (MIC); head: IC50 VALUES [1]: 29.75 ± 0.54 µM
- Zone of inhibition ([1]; 50 µg/ml): 15.58±0.65 mm
- Zone of inhibition ([1]; 100 µg/ml): 18.38±0.65 mm
- Minimum inhibitory concentration (MIC); head: IC50 VALUES [2]: 31.63 ± 0.59 µM
- Zone of inhibition ([2]; 50 µg/ml): 13.19±0.34 mm
- Zone of inhibition ([2]; 100 µg/ml): 15.14±0.31 mm
- Minimum inhibitory concentration (MIC); head: IC50 VALUES [3]: 28.79 ± 0.41 µM
- Zone of inhibition ([3]; 50 µg/ml): 14.78±0.43 mm
- Zone of inhibition ([3]; 100 µg/ml): 18.59±0.41 mm
- Minimum inhibitory concentration (MIC); head: IC50 VALUES [4]: 31.76 ± 0.42 µM
- Zone of inhibition ([4]; 50 µg/ml): 14.18±0.54 mm
- Zone of inhibition ([4]; 100 µg/ml): 17.91±0.24 mm
- IC50 [5]: > 40 µM
- Zone of inhibition ([6]; 50 µg/ml): 13.29±0.65 mm
- Zone of inhibition ([6]; 100 µg/ml): 17.44±0.55 mm
- Minimum inhibitory concentration (MIC); head: IC50 VALUES [7]: 33.05 ± 0.28 µM
- Zone of inhibition ([7]; 50 µg/ml): 14.39±0.34 mm
- Zone of inhibition ([7]; 100 µg/ml): 16.44±0.11 mm
- Total antioxidant capacity [8]: 07.02 ± 0.08 μg ascorbic acid equivalents/ml
- Minimum inhibitory concentration (MIC); head: IC50 VALUES [9]: 26.09 ± 0.48 µM
- Zone of inhibition ([9]; 50 µg/ml): 13.29±0.45 mm
- Zone of inhibition ([9]; 100 µg/ml): 16.67±0.11 mm
- Minimum inhibitory concentration (MIC); head: IC50 VALUES [10]: 30.19 ± 0.53 µM
- Zone of inhibition ([10]; 50 µg/ml): 15.78±0.44 mm
- Zone of inhibition ([10]; 100 µg/ml): 17.89±0.42 mm
- Minimum inhibitory concentration (MIC); head: IC50 VALUES [11]: 35.84 ± 0.37 µM
- Zone of inhibition ([11]; 50 µg/ml): 15.19±0.08 mm
- Zone of inhibition ([11]; 100 µg/ml): 17.67±0.78 mm
- IC50 [12]: 20.1 ± 0.18 µM
- IC50 [13]: 16 ± 0.21 µM

Structure (SMILES): O=C1O[C@H]([C@@H](O)CO)C(O)=C1O [vitamin C, ascorbic acid, reference compound]
- IC50 [14]: 98.7 ± 1.5 µM

Structure (SMILES): N.N.[Cl][Pt][Cl] [Cisplatin, reference compound]
- IC50 [5]: > 40 µM
- IC50 [12]: 16.79 ± 0.08 µM
- IC50 [13]: 15.1 ± 0.05 µM

Structure (SMILES): CNC(C)C1CCC(N)C(OC2C(N)CC(N)C(OC3OCC(C)(O)C(NC)C3O)C2O)O1 (stereo not shown) [Gentamicin, reference compound]
- zone of inhibition at 25 µg/mL ([6]; Salmonella enterica, 25 µg/ml): 20.4 ± 0.44 mm
- zone of inhibition at 25 µg/mL ([7]; Streptococcus, 25 µg/ml): 20.3 ± 0.39 mm
- zone of inhibition at 25 µg/mL ([10]; Pseudomonas aeruginosa, 25 µg/ml): 20.2 ± 0.22 mm
- zone of inhibition at 25 µg/mL ([11]; Staphylococcus aureus, 25 µg/ml): 20.3 ± 0.43 mm

Structure (SMILES): CC(=O)N1CCN(c2ccc(OCC3COC(Cn4ccnc4)(c4ccc(Cl)cc4Cl)O3)cc2)CC1 (stereo not shown) [Ketaconazole, reference compound]
- zone of inhibition at 25 µg/mL ([1]; 25 µg/ml): 23 ± 0.25 mm
- zone of inhibition at 25 µg/mL ([2]; 25 µg/ml): 21.89 ± 0.11 mm
- zone of inhibition at 25 µg/mL ([3]; 25 µg/ml): 19.5 ± 0.23 mm
- zone of inhibition at 25 µg/mL ([4]; 25 µg/ml): 24.12 ± 0.16 mm
- zone of inhibition at 25 µg/mL ([9]; Candida albicans, 25 µg/ml): 20.34 ± 0.2 mm
